Data: PMC8119466, “A screen of FDA-approved drugs identifies inhibitors of protein tyrosine phosphatase 4A3 (PTP4A3 or PRL-3)” (Scientific Reports, 2021)
Where a name gives a salt, the structure may show the parent alone. Read-outs that look alike come from different tables or passages of the source.

What was measured:
Assay type in all cases: biochemical
[1] = target: T1, recombinant PRL-1 (Homo sapiens, UniProt Q93096); assay: In vitro phosphatase assay (DiFMUP hydrolysis), PRL-1; further: test concentration or dose not given here
T1 construct: 6xHis (N, cleaved yes); made in house; host or cells: E. coli One Shot BL21 Star
T1 sequence (Q93096 1-173): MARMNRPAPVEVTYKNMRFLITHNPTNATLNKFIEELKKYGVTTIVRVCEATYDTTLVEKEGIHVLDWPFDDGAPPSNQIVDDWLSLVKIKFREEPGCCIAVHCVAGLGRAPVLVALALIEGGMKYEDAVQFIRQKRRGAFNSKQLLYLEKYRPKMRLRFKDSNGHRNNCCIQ

[2] = target: T2, recombinant PRL-3 (Homo sapiens, UniProt O75365); assay: In vitro phosphatase assay (DiFMUP hydrolysis), PRL-3; further: test concentration or dose not given here
T2 construct: 6xHis (N, cleaved yes); made in house; host or cells: E. coli One Shot BL21 Star
T2 sequence (O75365 whole entry): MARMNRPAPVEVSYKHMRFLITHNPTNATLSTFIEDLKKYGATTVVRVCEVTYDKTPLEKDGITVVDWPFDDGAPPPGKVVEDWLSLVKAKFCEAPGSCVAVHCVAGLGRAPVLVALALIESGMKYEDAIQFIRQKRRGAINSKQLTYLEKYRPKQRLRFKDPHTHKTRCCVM

[3] = target: T3, recombinant PRL-2 (Homo sapiens, UniProt Q12974); assay: In vitro phosphatase assay (DiFMUP hydrolysis), PRL-2;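 further: PRL-2 activity read as DiFMUP hydrolysis after 20 min at room temperature with drug, enzyme first pre-reduced at 4 °C for 20 min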
T3 construct: 6xHis (N, cleaved yes); made in house; host or cells: E. coli One Shot BL21 Star
T3 sequence (Q12974 1-167): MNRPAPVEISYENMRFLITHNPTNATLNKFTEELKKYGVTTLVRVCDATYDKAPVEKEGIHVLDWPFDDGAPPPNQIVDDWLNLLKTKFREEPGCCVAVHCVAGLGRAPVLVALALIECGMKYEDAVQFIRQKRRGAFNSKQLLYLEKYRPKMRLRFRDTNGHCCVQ

[4] = FDA-approved drug screen, compared to DMSO
[5] = FDA-approved drug screen, activity compared to DMSO

Row | Molecule | % Phosphatase Activity (compared to DMSO) PRL-1 [1, 4] [%] | % Phosphatase Activity (compared to DMSO) PRL-3 [2, 4] [%] | % Phosphatase Activity (compared to DMSO) PRL-2 [3, 4] [%] | also measured
1 | CO/N=C(\C(=O)N[C@@H]1C(=O)N2C(C(=O)O)=C(COC(N)=O)CS[C@H]12)c1ccco1 [Cefuroxime sodium] | 96 | 82 | 96 | 
2 | COc1ccccc1N1CCN(CCCNc2cc(=O)n(C)c(=O)n2C)CC1.Cl [Urapidil HCl] |  |  |  | % Phosphatase Activity (compared to DMSO) PRL-1 [1, 5]: 98%; % Phosphatase Activity (compared to DMSO) PRL-3 [2, 5]: 92%; % Phosphatase Activity (compared to DMSO) PRL-2 [3, 5]: 97%
3 | C[N+]1(C)[C@@H]2C[C@@H](OC(=O)[C@H](CO)c3ccccc3)C[C@H]1[C@@H]1O[C@@H]12 [Methscopolamine] | 86 | 88 | 107 | 
4 | Nc1nnc(-c2cccc(Cl)c2Cl)c(N)n1 [Lamotrigine] | 121 | 83 | 110 | 
5 | COc1cccc(-c2ccc(NC(=O)C3=C(C(=O)O)CCC3)c(F)c2)c1 [Vidofludimus] |  |  |  | % Phosphatase Activity (compared to DMSO) PRL-1 [1, 5]: 97%; % Phosphatase Activity (compared to DMSO) PRL-3 [2, 5]: 91%; % Phosphatase Activity (compared to DMSO) PRL-2 [3, 5]: 72%
6 | O=C(O)c1cn(-c2ccc(F)cc2)c2cc(N3CCNCC3)c(F)cc2c1=O [Sarafloxacin HCl] | 108 | 116 | 108 | 
7 | CCC1=C(C)CN(C(=O)NCCc2ccc(S(=O)(=O)NC(=O)N[C@H]3CC[C@H](C)CC3)cc2)C1=O [Glimepiride] | 84 | 76 | 88 | 
8 | CC1=C(/C=C/C(C)=C/C=C/C(C)=C\C(=O)O)C(C)(C)CCC1 [Isotretinoin] | 72 | 57 | 71 | 
9 | CC(C)C(=O)OCC(=O)[C@@]12O[C@H](C3CCCCC3)O[C@@H]1C[C@H]1[C@@H]3CCC4=CC(=O)C=C[C@]4(C)[C@H]3[C@@H](O)C[C@@]12C [Ciclesonide] | 100 | 88 | 108 | 
10 | CNC(=O)c1ccc(Nc2ncc(C(F)(F)F)c(NCc3nccnc3N(C)S(C)(=O)=O)n2)cc1 [Defactinib (VS-6063, PF-04554878)] | 98 | 89 | 87 | 
11 | Clc1ccc(COC(Cn2ccnc2)c2ccc(Cl)cc2Cl)c(Cl)c1 (stereo not drawn) [Miconazole Nitrate] | 98 | 92 | 93 | 
12 | CCc1ccc(CCOc2ccc(CC3SC(=O)NC3=O)cc2)nc1 (stereo not drawn) [Pioglitazone HCl] | 81 | 86 | 100 | 
13 | NC(=O)[C@@H]1CCCN1C(=O)[C@H](Cc1cnc[nH]1)NC(=O)[C@@H]1CCC(=O)N1 [Protirelin] | 97 | 106 | 91 | 
14 | CCCCOC(=O)c1ccc(O)cc1 [Butylparaben] | 91 | 80 | 94 | 
15 | O=C(O)c1cc(/N=N/c2ccc(O)c(C(=O)O)c2)ccc1O [Olsalazine Sodium] | 59 | 61 | 53 | 
16 | Cc1cn([C@H]2C[C@H](N=[N+]=[N-])[C@@H](CO)O2)c(=O)[nH]c1=O [Zidovudine] |  |  |  | % Phosphatase Activity (compared to DMSO) PRL-1 [1, 5]: 100%; % Phosphatase Activity (compared to DMSO) PRL-3 [2, 5]: 85%; % Phosphatase Activity (compared to DMSO) PRL-2 [3, 5]: 112%
17 | CC(C)(Sc1cc(C(C)(C)C)c(O)c(C(C)(C)C)c1)Sc1cc(C(C)(C)C)c(O)c(C(C)(C)C)c1 [Probucol] | 100 | 78 | 122 | 
18 | CC(C)(C)CC(C)(C)c1ccc(O)c(Cc2ccc(Cl)cc2Cl)c1 [Clofoctol] | 91 | 83 | 87 | 
19 | C[C@]1(O)CC[C@H]2[C@@H]3CCC4=CC(=O)CC[C@]4(C)[C@@]3(F)[C@@H](O)C[C@@]21C [Fluoxymesterone] |  |  |  | % Phosphatase Activity (compared to DMSO) PRL-1 [1]: 90%; % Phosphatase Activity (compared to DMSO) PRL-3 [2]: 76%; % Phosphatase Activity (compared to DMSO) PRL-2 [3]: 102%
20 | CCC1(c2ccccc2)C(=O)NCNC1=O [Primidone] | 84 | 79 | 93 | 

Row | Molecule | % Phosphatase Activity (compared to DMSO) PRL-1 [1, 4] [%] | % Phosphatase Activity (compared to DMSO) PRL-3 [2, 4] [%] | % Phosphatase Activity (compared to DMSO) PRL-2 [3, 4] [%] | also measured
21 | CC(=O)Oc1ccccc1C(=O)Nc1ncc([N+](=O)[O-])s1 [Nitazoxanide] | 87 | 62 | 76 | 
22 | C/C(=C\C(=O)OCCCCCCCCC(=O)O)C[C@@H]1OC[C@H](C[C@@H]2O[C@H]2[C@@H](C)[C@H](C)O)[C@@H](O)[C@H]1O [Mupirocin] | 92 | 69 | 97 | 
23 | CCCC(C(=O)OCCN(CC)CC)(c1ccccc1)c1ccccc1 [Proadifen HCl] | 94 | 105 | 106 | 
24 | CC(=O)Oc1cc2c(s1)CCN(C(C(=O)C1CC1)c1ccccc1F)C2 (stereo not drawn) [Prasugrel Hydrochloride] | 92 | 87 | 109 | 
25 | CCCC(=O)OCOC(=O)C1=C(C)NC(C)=C(C(=O)OC)C1c1cccc(Cl)c1Cl (stereo not drawn) [Clevidipine Butyrate] | 473 | 262 | 437 | 
26 | CCN(CC)CCOC(=O)c1ccc(N)cc1 [Procaine HCl] | 108 | 92 | 112 | 
27 | Cc1cc(Nc2ncc(Cl)c(Nc3ccccc3S(=O)(=O)C(C)C)n2)c(OC(C)C)cc1C1CCNCC1 [LDK378] | 99 | 114 | 92 | 
28 | CC[C@]1(O)C[C@@H]2CN(CCc3c([nH]c4ccccc34)[C@@](C(=O)OC)(c3cc4c(cc3OC)N(C)[C@H]3[C@@](O)(C(=O)OC)[C@H](OC(C)=O)[C@]5(CC)C=CCN6CC[C@]43[C@@H]65)C2)C1 [Vinblastine sulfate] |  |  |  | % Phosphatase Activity (compared to DMSO) PRL-1 [1, 5]: 92%; % Phosphatase Activity (compared to DMSO) PRL-3 [2, 5]: 91%; % Phosphatase Activity (compared to DMSO) PRL-2 [3, 5]: 95%
29 | COc1ccc(C(CN(C)C)C2(O)CCCCC2)cc1 (stereo not drawn) [Venlafaxine] |  |  |  | % Phosphatase Activity (compared to DMSO) PRL-1 [1, 5]: 97%; % Phosphatase Activity (compared to DMSO) PRL-3 [2, 5]: 84%; % Phosphatase Activity (compared to DMSO) PRL-2 [3, 5]: 100%
30 | O=c1oc2cc(O)ccc2s1 [Tioxolone] |  |  |  | % Phosphatase Activity (compared to DMSO) PRL-1 [1, 5]: 102%; % Phosphatase Activity (compared to DMSO) PRL-3 [2, 5]: 92%; % Phosphatase Activity (compared to DMSO) PRL-2 [3, 5]: 124%
31 | CNC[C@H](O)c1ccc(O)c(O)c1 [Epinephrine HCl] |  |  |  | % Phosphatase Activity (compared to DMSO) PRL-1 [1]: 98%; % Phosphatase Activity (compared to DMSO) PRL-3 [2]: 90%; % Phosphatase Activity (compared to DMSO) PRL-2 [3]: 132%
32 | Heparin sodium | 86 | 78 | 72 | 
33 | C[C@]12CCC(=O)C=C1[C@@H]1C[C@@H]1[C@H]1[C@@H]3[C@@H]4C[C@@H]4[C@@]4(CCC(=O)O4)[C@@]3(C)CC[C@@H]12 [Drospirenone] | 90 | 71 | 89 | 
34 | Cc1ccc(Nc2nccc(N(C)c3ccc4c(C)n(C)nc4c3)n2)cc1S(N)(=O)=O [Pazopanib] | 97 | 89 | 100 | 
35 | Clc1ccc(C(c2ccccc2Cl)C(Cl)Cl)cc1 (stereo not drawn) [Mitotane] | 98 | 103 | 93 | 
36 | COc1c(N2CCNC(C)C2)c(F)cc2c(=O)c(C(=O)O)cn(C3CC3)c12 (stereo not drawn) [Gatifloxacin] | 146 | 122 | 187 | 
37 | CC(C)[C@H](N)C(=O)OCCOCn1cnc2c(=O)nc(N)[nH]c21.Cl [Valaciclovir HCl] |  |  |  | % Phosphatase Activity (compared to DMSO) PRL-1 [1, 5]: 97%; % Phosphatase Activity (compared to DMSO) PRL-3 [2, 5]: 98%; % Phosphatase Activity (compared to DMSO) PRL-2 [3, 5]: 102%
38 | O=C1[C@H](CC[C@H](O)c2ccc(F)cc2)[C@@H](c2ccc(O)cc2)N1c1ccc(F)cc1 [Ezetimibe] | 100 | 80 | 82 | 
39 | O=C1c2ccccc2C(=O)C1c1ccccc1 [Phenindione] | 93 | 84 | 100 | 
